Measurements published in the supplement of paper PMC4862054.

Tests used:
HCC1143 = settings: 72 h
Outline: (§1)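 Viability of breast cancer cell lines was measured with CellTiter-Blue after 72 h of incubation on compound-loaded 384-well plates. Cells were seeded in 20 µl onto compound dissolved in 5 µl medium, and 2.5 µl reagent was added for 2 h at 37 °C before reading at 560/590 nm. EC50 was fitted from percent-inhibition dose-response data censored at the highest concentration, normalised per plate to vehicle and a positive kill control, with zero drug sensitivity score rows dropped.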

MDA-MB-231 = settings: 72 h
Outline: as §1

MFM-223 = settings: 72 h
Outline: as §1

BT-549 [1] = settings: 72 h
Outline: as §1

Hs578T [2] = settings: 72 h
Outline: as §1

MDA-MB-468 [3] = settings: 72 h
Outline: as §1

SK-BR-3 = settings: 72 h
Outline: as §1

HCC1937 = settings: 72 h
Outline: as §1

HCC1599 = settings: 72 h
Outline: as §1

MDA-MB-436 = settings: 72 h
Outline: as §1

CAL-120 = settings: 72 h
Outline: as §1

Hs578T [4] = settings: 72 h; remark: listed apart in the source
Description: (§2)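 Drug sensitivity and resistance testing (DSRT) of breast cancer cell lines in 384-well plates, 5 concentrations in 10-fold dilutions over a compound-specific 10,000-fold range. After 72 h, cytotoxicity was read by CellTox Green fluorescence and viability by CellTiter-Glo luminescence (multiplexed), normalised to DMSO and benzethonium chloride controls. EC50 is the inflection point of the fitted dose-response curve (bottom asymptote free, so it can be relative for partial curves) and is censored at the highest tested concentration. Rows with DSS 0 (no meaningful response) were excluded.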

MDA-MB-468 [5] = settings: 72 h; remark: listed apart in the source
Description: as §2

CAL-51 [6] = settings: 72 h
Description: as §2

BT-549 [7] = settings: 72 h; remark: listed apart in the source
Description: as §2

CAL-85-1 [8] = settings: 72 h
Description: as §2

BT-474 = settings: 72 h
Description: as §2

DU-4475 = assay: normalised viability (% of control), CellTiter-Blue; higher = more viable cells (about 100 = DMSO control); settings: incubation time: 72 h
Description: (§3)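 DSRT, CellTiter-Blue viability, 72 h incubation. Signal is normalised to DMSO and benzethonium chloride controls. Value is the normalised response at dose 9.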

HDQ-P1 = assay: as above; settings: incubation time: 72 h
Description: as §3

CAL-85-1 [9] = assay: as above; settings: incubation time: 72 h
Description: as §3

CAL-148 = assay: as above; settings: incubation time: 72 h
Description: as §3

MDA-MB-453 = assay: as above; settings: incubation time: 72 h
Description: as §3

CAL-51 [10] = assay: as above; settings: incubation time: 72 h
Description: as §3

Row | SMILES | EC50, CellTiter-Blue viability (HCC1143) [nM] | EC50, CellTiter-Blue viability (MDA-MB-231) [nM] | EC50, CellTiter-Blue viability (MFM-223) [nM] | EC50, CellTiter-Blue viability (BT-549 [1]) [nM] | EC50, CellTiter-Blue viability (Hs578T [2]) [nM] | EC50, CellTiter-Blue viability (MDA-MB-468 [3]) [nM] | EC50, CellTiter-Blue viability (SK-BR-3) [nM] | EC50, CellTiter-Blue viability (HCC1937) [nM] | EC50, CellTiter-Blue viability (HCC1599) [nM] | EC50, CellTiter-Blue viability (MDA-MB-436) [nM] | EC50, CellTiter-Blue viability (CAL-120) [nM] | EC50, CellTox Green (Hs578T [4]) [nM] | EC50, CellTox Green (MDA-MB-468 [5]) [nM] | EC50, CellTox Green (CAL-51 [6]) [nM] | EC50, CellTox Green (BT-549 [7]) [nM] | EC50, CellTox Green (CAL-85-1 [8]) [nM] | EC50, CellTox Green (BT-474) [nM] | normalised viability (DU-4475) [%] | normalised viability (HDQ-P1) [%] | normalised viability (CAL-85-1 [9]) [%] | normalised viability (CAL-148) [%] | normalised viability (MDA-MB-453) [%] | normalised viability (CAL-51 [10]) [%]
1 | CO[C@@]12[C@H](COC(N)=O)C3=C(C(=O)C(C)=C(N)C3=O)N1C[C@@H]1N[C@@H]12 [Mitomycin C] | 2380 | 1080 | 3790 | 2970 | 3560 | 2270 | 1490 | 360 | 1370 | 2680 | 7160 | > 10000 | 27.6 | 307 | – | – | – | – | – | – | – | – | –
2 | Cc1cc(Nc2nc(N[C@@H](C)c3ncc(F)cn3)ncc2Cl)[nH]n1 [AZD1480] | – | – | 64.8 | – | – | – | – | – | 213 | – | – | – | – | – | > 1000 | – | – | – | – | – | – | – | –
3 | CC(C)(C)c1nc(-c2cccc(NS(=O)(=O)c3c(F)cccc3F)c2F)c(-c2ccnc(N)n2)s1 [Dabrafenib] | – | – | – | – | – | – | – | – | – | – | – | 9.91 | – | – | – | – | – | – | – | – | – | – | –
4 | CCNC(=O)c1noc(-c2cc(C(C)C)c(O)cc2O)c1-c1ccc(CN2CCOCC2)cc1 [NVP-AUY922] | 32.2 | 6.7 | 5.15 | 5.61 | 3.74 | 7.89 | 6.13 | 0.76 | 45.2 | 10.2 | 7.81 | 247 | – | 74.6 | – | 84.1 | 219 | – | – | – | – | – | –
5 | CCN(CC)CCCC(C)Nc1ccnc2cc(Cl)ccc12 (stereo not given) [Chloroquine] | – | – | – | – | – | – | – | – | – | – | – | 18800 | 568 | 50800 | 24800 | 20800 | 4950 | – | – | – | – | – | –
6 | O=[N+]([O-])c1ccc2c(c1)S(=O)(=O)C=C2 [Stattic] | – | – | – | – | – | – | – | – | – | – | – | 1710 | 1130 | 1390 | 1070 | 1110 | 1890 | – | – | – | – | – | –
7 | O=C(CCCCCCC(=O)Nc1ccccc1)NO [Vorinostat] | 2590 | 3110 | 2050 | 2860 | 3080 | 1480 | 617 | 2480 | 3270 | – | 1720 | 948 | 6570 | 2660 | > 10000 | – | 6410 | – | – | – | – | – | –
8 | CC1(COc2ccc3c(c2)ncn3-c2ccc3cccc(N4CCC(N)CC4)c3n2)COC1 [Crenolanib] | – | – | – | – | – | – | – | – | – | – | – | – | – | 4710 | 3000 | 2620 | 2390 | – | – | – | – | – | –
9 | CC(=O)[C@]1(O)Cc2c(O)c3c(c(O)c2[C@@H](O[C@H]2C[C@H](N)[C@H](O)[C@H](C)O2)C1)C(=O)c1ccccc1C3=O [Idarubicin] | 91.5 | 79.6 | 263 | 91.5 | 93.8 | 53 | 24.5 | 5.47 | 945 | 96.8 | 42.2 | – | 82.7 | 148 | – | 198 | 53.5 | – | – | – | – | – | –
10 | CN[C@@H](C)C(=O)N[C@H]1CN(C(=O)CC(C)C)CC[C@H]2CC[C@@H](C(=O)NC(c3ccccc3)c3ccccc3)N2C1=O [AT-406] | – | – | – | – | – | – | – | – | – | – | – | – | – | – | 18.9 | 75.9 | > 10000 | – | – | – | – | – | –
11 | CN(C)C(=N)NC(=N)N [Metformin] | – | – | – | – | – | – | – | – | – | – | – | – | 710 | 100 | – | – | – | – | – | – | – | – | –
12 | CO[C@@H]1[C@H](N(C)C(=O)c2ccccc2)C[C@H]2O[C@]1(C)n1c3ccccc3c3c4c(c5c6ccccc6n2c5c31)C(=O)NC4 [Midostaurin] | 822 | 477 | 708 | 1490 | 299 | 490 | 1240 | 237 | 617 | 204 | 591 | 997 | 384 | 29.6 | 1060 | – | – | – | – | – | – | – | –
13 | Cc1cc(Nc2nc(N[C@@H](C)c3ncc(F)cn3)ncc2Cl)[nH]n1 [AZD1480] (1000 nM) | – | – | – | – | – | – | – | – | – | – | – | – | – | – | – | – | – | 74.7 | 137 | 88.4 | 100 | 56.6 | 86.3
14 | CC1(C)CCC(c2ccc(Cl)cc2)=C(CN2CCN(c3ccc(C(=O)NS(=O)(=O)c4ccc(N[C@H](CCN5CCOCC5)CSc5ccccc5)c(S(=O)(=O)C(F)(F)F)c4)cc3)CC2)C1 [Navitoclax] | – | 614 | 101 | 373 | – | 109 | – | – | 166 | – | 235 | – | 1740 | 906 | – | 517 | 1540 | – | – | – | – | – | –
